# Results taken from ChEMBL document CHEMBL1132897, “The basal SAR of a novel insulin receptor activator” (Bioorg Med Chem Lett, 2000).
# Legend:
# [1] = molecular target: Insulin receptor (Homo sapiens) (UniProt P06213); experiment: Percent activation of insulin receptor in CHO cells by 10 uM of compound; assay type: cell-based
# [2] = molecular target: Insulin receptor (Homo sapiens) (UniProt P06213); experiment: Ability to activate the insulin receptor compared to that of lead structure 1 expressed as X/1
# Chain of Insulin receptor (Homo sapiens) (P06213 28-758 limits assumed): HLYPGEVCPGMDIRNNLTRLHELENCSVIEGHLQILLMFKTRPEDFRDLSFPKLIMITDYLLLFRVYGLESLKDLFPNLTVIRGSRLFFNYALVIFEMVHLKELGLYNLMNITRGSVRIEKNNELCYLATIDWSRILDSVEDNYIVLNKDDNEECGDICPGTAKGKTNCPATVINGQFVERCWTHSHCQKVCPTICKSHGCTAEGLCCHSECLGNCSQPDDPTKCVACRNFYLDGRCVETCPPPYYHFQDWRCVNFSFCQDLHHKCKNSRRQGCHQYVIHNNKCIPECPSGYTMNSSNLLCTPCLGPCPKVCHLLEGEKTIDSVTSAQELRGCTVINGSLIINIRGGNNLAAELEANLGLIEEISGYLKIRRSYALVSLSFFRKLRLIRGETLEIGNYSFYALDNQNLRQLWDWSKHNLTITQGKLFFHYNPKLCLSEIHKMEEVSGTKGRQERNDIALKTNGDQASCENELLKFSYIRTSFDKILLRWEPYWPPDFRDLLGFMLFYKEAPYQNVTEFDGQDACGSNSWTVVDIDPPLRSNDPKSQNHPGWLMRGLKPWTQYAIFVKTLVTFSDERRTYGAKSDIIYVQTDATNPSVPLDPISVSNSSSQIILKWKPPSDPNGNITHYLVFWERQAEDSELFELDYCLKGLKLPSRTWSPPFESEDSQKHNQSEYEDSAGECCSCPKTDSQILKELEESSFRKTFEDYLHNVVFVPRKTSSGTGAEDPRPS
# Chain of Insulin receptor (Homo sapiens) (P06213 763-1382 limits assumed): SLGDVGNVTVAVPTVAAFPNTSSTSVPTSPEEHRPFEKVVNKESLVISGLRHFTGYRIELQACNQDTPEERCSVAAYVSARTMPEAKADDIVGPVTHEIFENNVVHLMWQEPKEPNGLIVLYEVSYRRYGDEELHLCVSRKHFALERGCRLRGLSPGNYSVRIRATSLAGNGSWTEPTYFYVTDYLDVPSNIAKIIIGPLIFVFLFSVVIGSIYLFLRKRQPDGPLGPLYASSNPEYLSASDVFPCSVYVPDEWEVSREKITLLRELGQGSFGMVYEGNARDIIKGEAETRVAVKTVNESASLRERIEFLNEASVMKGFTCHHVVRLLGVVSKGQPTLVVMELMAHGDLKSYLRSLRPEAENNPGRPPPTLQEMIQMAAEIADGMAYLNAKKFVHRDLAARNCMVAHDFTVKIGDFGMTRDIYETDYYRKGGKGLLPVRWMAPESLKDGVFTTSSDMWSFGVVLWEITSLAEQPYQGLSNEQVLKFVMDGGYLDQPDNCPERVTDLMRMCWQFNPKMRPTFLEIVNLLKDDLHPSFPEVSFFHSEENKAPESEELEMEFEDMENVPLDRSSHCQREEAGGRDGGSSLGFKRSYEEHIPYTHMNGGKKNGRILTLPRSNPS
SMILES,Activation [1],Relative activity [2]
C=CC(C)(C)c1[nH]c2ccccc2c1C1=C(O)C(O)=C(c2c[nH]c3c(CCC(C)(C)OC(=O)C(F)(F)F)cccc23)C(=O)C1=O,48%,0.64
C=CC(C)(C)c1[nH]c2ccccc2c1C1=C(O)C(O)=C(c2c[nH]c3c(CC(O)C(C)(C)O)cccc23)C(=O)C1=O (stereo not given),75%,1
C=CC(C)(C)c1[nH]c2ccccc2c1C1=C(OC)C(=O)C(c2c[nH]c3c(CC=C(C)C)cccc23)=C(OC)C1=O,0%,0
C=CC(C)(C)c1[nH]c2ccccc2c1C1=C(OC)C(=O)C(c2c[nH]c3c(CC=C(C)C)cccc23)=C(O)C1=O,16%,0.21
C=CC(C)(C)c1[nH]c2ccccc2c1C1=C(O)C(=N\C)/C(c2c[nH]c3c(CC=C(C)C)cccc23)=C(O)C/1=N/C,1%,0.01
CCC(C)(C)c1[nH]c2ccccc2c1C1=C(O)C(O)=C(c2c[nH]c3c(CCC(C)C)cccc23)C(=O)C1=O,57%,0.76
C=CC(C)(C)c1[nH]c2ccccc2c1C1=C(O)C(O)=C(c2c[nH]c3c(CCC(C)(C)O)cccc23)C(=O)C1=O,35%,0.47
C=CC(C)(C)c1[nH]c2ccccc2c1C1=C(OS(=O)(=O)C(F)(F)F)C(=O)C(c2c[nH]c3c(CC=C(C)C)cccc23)=C(N)C1=O,0%,0
C=CC(C)(C)c1[nH]c2ccccc2c1C1=C(OS(=O)(=O)C(F)(F)F)C(=O)C(c2c[nH]c3c(CC=C(C)C)cccc23)=C(OS(=O)(=O)C(F)(F)F)C1=O,0%,0

# Other lines, results leading:
Activation [1],Relative activity [2],SMILES
75%,1,C=CC(C)(C)c1[nH]c2ccccc2c1C1=C(O)C(O)=C(c2c[nH]c3c(CC=C(C)C)cccc23)C(=O)C1=O
3%,0.03,C=CC(C)(C)c1c(C2=C(O)C(O)=C(c3cn(C)c4c(CC=C(C)C)cccc34)C(=O)C2=O)c2ccccc2n1C
2%,0.03,C=CC(C)(C)c1[nH]c2ccccc2c1C1=C(O)C(N)=C(c2c[nH]c3c(CC=C(C)C)cccc23)C(=O)C1=O
82%,1.09,CCC(C)(C)c1[nH]c2ccccc2c1C1=C(O)C(O)=C(c2c[nH]c3c(CC=C(C)C)cccc23)C(=O)C1=O
79%,1.05,C=CC(C)(C)c1c(C2=C(O)C(O)=C(c3c[nH]c4c(CCC(C)(C)O)cccc34)C(=O)C2=O)c2ccccc2n1C
24%,0.32,C=CC(C)(C)c1[nH]c2ccccc2c1C1=C(O)C(O)=C(c2cn(C)c3c(CC=C(C)C)cccc23)C(=O)C1=O
